{"source": "patent US11773127B2", "about": "“Compounds and methods for treating bacterial infections” (Washington University, priority 2017, dated 2023)", "key": {"FmlHLD [1]": {"biological_target": "T1, FmlHLD (Escherichia coli, UniProt P77588)", "T1 construct": "6xHis (C); made in house; host or cells: E. coli C600, periplasm, pTRC99a", "T1 sequence (P77588 25-182)": "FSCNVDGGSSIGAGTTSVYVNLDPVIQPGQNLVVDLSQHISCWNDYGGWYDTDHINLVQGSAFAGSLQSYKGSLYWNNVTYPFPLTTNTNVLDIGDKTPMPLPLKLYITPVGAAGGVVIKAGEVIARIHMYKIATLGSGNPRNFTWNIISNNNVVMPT", "assay": "biochemical", "format": "binding, E. coli", "excerpt": "Bio-layer interferometry (BLI) was used to quantitate the binding affinity of select galactosides to FmlH.\nThereafter, pins were dipped in PBS for 120 s and transferred to protein samples (varying concentration of FmlHLD or fixed concentration of FmlHLD with varying concentration of galactoside compounds) for association for 300-600 s."}, "FmlHLD [2]": {"biological_target": "T1, FmlHLD", "assay": "biochemical", "format": "binding, E. coli", "conditions": "for PI100 (percent inhibition): galactoside at 100 μM, 100 µM", "summary_of_the_method": "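Sialidase-treated bovine submaxillary mucin (ds-BSM) coated wells, BSA-blocked, then biotinylated FmlH^LD (20 μg/mL) with or without compound for 1 h at room temperature. Bound lectin detected by streptavidin-HRP/TMB, A450.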"}, "[3]": {"conditions": "read-out: % Inhibition at [μM] [100], compound at 100 μM, inhibition of FmlHLD binding to ds-BSM"}, "[4]": {"conditions": "read-out: % Inhibition at [μM] [1], compound at 1 μM, inhibition of FmlHLD binding to ds-BSM"}, "[5]": {"conditions": "read-out: % Inhibition at [μM] [10], compound at 10 μM, inhibition of FmlHLD binding to ds-BSM"}, "[6]": {"conditions": "read-out: PI100 (percent inhibition), galactoside at 100 μM, mean with standard error of the mean"}, "[7]": {"conditions": "Kd (μM), inhibitory constants, fixed FmlHLD, varying galactoside in solution, immobilized ser-TF"}, "[8]": {"conditions": "mean with standard error of the mean"}, "[9]": {"conditions": "read-out: PI1 (percent inhibition), galactoside at 1 μM, mean with standard error of the mean"}, "[10]": {"conditions": "read-out: PI10 (percent inhibition), galactoside at 10 μM, mean with standard error of the mean"}, "[11]": {"conditions": "read-out: PI(1) (average percent inhibition), compound at 1 μM, Table 4"}}, "note": "Like-named read-outs stand apart in the source and are kept apart here.", "data": [{"smiles": "OC[C@H]1O[C@@H](Oc2cc3c(O)cc(O)cc3[o+]c2-c2ccc(O)c(O)c2)[C@H](O)[C@@H](O)[C@H]1O", "note": "[CG, reference compound]", "values": [{"measurement": "Kd", "setting": "FmlHLD [1]; Kd", "value": 212, "unit": "µM"}, {"measurement": "inhibition at 100 µM", "setting": "FmlHLD [2]; [3]", "value": 28.8, "unit": "%"}]}, {"smiles": "CC(=O)N[C@H]1[C@H](Oc2ccccc2-c2cccc(C(=O)O)c2)O[C@H](CO)[C@H](O)[C@@H]1O", "note": "[Compound 200b-GalNAc]", "values": [{"measurement": "Kd", "setting": "FmlHLD [1]; Kd", "value": 0.089, "unit": "µM"}, {"measurement": "inhibition at 1 µM", "setting": "FmlHLD [2]; [4]", "value": 35.1, "unit": "%"}, {"measurement": "inhibition at 10 µM", "setting": "FmlHLD [2]; [5]", "value": 93, "unit": "%"}, {"measurement": "inhibition at 100 µM", "setting": "FmlHLD [2]; [3]", "value": 99.5, "unit": "%"}]}, {"smiles": "CC(=O)N[C@@H]1[C@@H](O[C@@H]2O[C@H](CO)[C@H](O)[C@H](O)[C@H]2O)[C@@H](O)[C@@H](CO)O[C@@H]1O", "note": "[TF, Gal-β1-3-GalNAc-α, reference compound]", "values": [{"measurement": "Kd", "setting": "FmlHLD [1]; Kd", "value": 248, "unit": "µM"}, {"measurement": "inhibition at 100 µM", "setting": "FmlHLD [2]; [3]", "value": 15.5, "unit": "%"}, {"measurement": "inhibition at 100 µM", "setting": "FmlHLD [2]; [6]", "value": "15.5 ± 6.7", "unit": "%"}, {"measurement": "inhibition of FmlHLD binding to ds-BSM, in words", "setting": "FmlHLD [2]; soluble compound at 1 mM", "value": "capable of inhibiting FmlHLD"}]}, {"smiles": "COc1ccccc1O[C@@H]1O[C@H](CO)[C@H](O)[C@H](O)[C@H]1O", "note": "[Compound 5β, 2-methoxyphenyl β-D-galactopyranoside]", "values": [{"measurement": "Kd", "setting": "FmlHLD [1]; [7]", "value": "6.5 ± 1.4", "unit": "µM"}, {"measurement": "PI100 (percent inhibition)", "setting": "FmlHLD [2]; [8]", "value": "97.2 ± 0.4", "unit": "%"}, {"measurement": "inhibition at 1 µM", "setting": "FmlHLD [2]; [9]", "value": "10 ± 4.3", "unit": "%"}, {"measurement": "inhibition at 10 µM", "setting": "FmlHLD [2]; [10]", "value": "55.7 ± 1.6", "unit": "%"}, {"measurement": "inhibition at 100 µM", "setting": "FmlHLD [2]; [6]", "value": 97, "unit": "%"}]}, {"smiles": "COc1ccccc1O[C@@H]1O[C@H](CO)[C@H](O)[C@H](O)[C@H]1O", "note": "[Compound 149e]", "values": [{"measurement": "Kd", "setting": "FmlHLD [1]; Kd", "value": 6.5, "unit": "µM"}, {"measurement": "inhibition at 1 µM", "setting": "FmlHLD [2]; [4]", "value": 9.99, "unit": "%"}, {"measurement": "inhibition at 10 µM", "setting": "FmlHLD [2]; [5]", "value": 55.7, "unit": "%"}, {"measurement": "inhibition at 100 µM", "setting": "FmlHLD [2]; [3]", "value": 97.2, "unit": "%"}]}, {"smiles": "OC[C@H]1O[C@@H](Oc2cccc3cccnc23)[C@H](O)[C@@H](O)[C@H]1O", "note": "[Compound 8HQG, reference compound]", "values": [{"measurement": "Kd", "setting": "FmlHLD [1]; Kd", "value": 7.1, "unit": "µM"}, {"measurement": "inhibition at 1 µM", "setting": "FmlHLD [2]; [4]", "value": 19.2, "unit": "%"}, {"measurement": "inhibition at 10 µM", "setting": "FmlHLD [2]; [5]", "value": 48.1, "unit": "%"}, {"measurement": "inhibition at 100 µM", "setting": "FmlHLD [2]; [3]", "value": 95.1, "unit": "%"}]}, {"smiles": "CC(=O)N[C@@H]1[C@@H](O[C@@H]2O[C@H](CO)[C@H](O)[C@H](O)[C@H]2O)[C@H](O)[C@@H](CO)O[C@@H]1O", "note": "[Gal-β1-GalNAc, reference compound]", "values": [{"measurement": "Kd", "setting": "FmlHLD [1]; [7]", "value": "248 ± 20.3", "unit": "µM"}]}, {"smiles": "O=[N+]([O-])c1ccccc1O[C@@H]1O[C@H](CO)[C@H](O)[C@H](O)[C@H]1O", "note": "[4β (ONPG), reference compound]", "values": [{"measurement": "Kd", "setting": "FmlHLD [1]; [7]", "value": "10.6 ± 4.6", "unit": "µM"}]}, {"smiles": "OC[C@H]1O[C@@H](Oc2cccc3cccnc23)[C@H](O)[C@@H](O)[C@H]1O", "note": "[Compound 20β]", "values": [{"measurement": "Kd", "setting": "FmlHLD [1]; [7]", "value": "7.1 ± 2.3", "unit": "µM"}, {"measurement": "PI100 (percent inhibition)", "setting": "FmlHLD [2]; [8]", "value": "95.1 ± 1.1", "unit": "%"}, {"measurement": "inhibition at 1 µM", "setting": "FmlHLD [2]; [9]", "value": "19.2 ± 2.8", "unit": "%"}, {"measurement": "inhibition at 10 µM", "setting": "FmlHLD [2]; [10]", "value": "48.1 ± 2", "unit": "%"}, {"measurement": "inhibition at 100 µM", "setting": "FmlHLD [2]; [6]", "value": 95, "unit": "%"}]}, {"smiles": "O=C(O)c1cccc(-c2ccccc2O[C@@H]2O[C@H](CO)[C@H](O)[C@H](O)[C@H]2O)c1", "note": "[Compound 200b]", "values": [{"measurement": "Kd", "setting": "FmlHLD [1]; Kd", "value": 2.1, "unit": "µM"}, {"measurement": "inhibition at 1 µM", "setting": "FmlHLD [2]; [4]", "value": 12.3, "unit": "%"}, {"measurement": "inhibition at 10 µM", "setting": "FmlHLD [2]; [5]", "value": 75.1, "unit": "%"}, {"measurement": "inhibition at 100 µM", "setting": "FmlHLD [2]; [3]", "value": 99, "unit": "%"}]}, {"smiles": "O=c1c(O[C@@H]2O[C@H](CO)[C@H](O)[C@H](O)[C@H]2O)c(-c2ccc(O)c(O)c2)oc2cc(O)cc(O)c12", "note": "[QG, reference compound]", "values": [{"measurement": "Kd", "setting": "FmlHLD [1]; Kd", "value": 391, "unit": "µM"}, {"measurement": "inhibition at 100 µM", "setting": "FmlHLD [2]; [3]", "value": 14.4, "unit": "%"}]}, {"smiles": "O=C(O)c1cccc(-c2ccccc2O[C@@H]2O[C@H](CO)[C@H](O)[C@H](O)[C@H]2O)c1", "note": "[Compound 29β, 2′-(α/β-D-galactopyranosyloxy)-[1,1′-Biphenyl]-3-carboxylic acid]", "values": [{"measurement": "enhancement in binding affinity relative to Gal", "setting": "FmlHLD [1]; BLI Kd ratio", "value": "~330", "unit": "fold"}, {"measurement": "PI10 (percent inhibition)", "setting": "FmlHLD [2]; galactoside at 10 μM, mean with standard error of the mean, 10 µM", "value": "75.1 ± 1.0", "unit": "%"}, {"measurement": "inhibition at 1 µM", "setting": "FmlHLD [2]; [9]", "value": "22.9 ± 5.1", "unit": "%"}, {"measurement": "inhibition at 10 µM", "setting": "FmlHLD [2]; [10]", "value": 75, "unit": "%"}, {"measurement": "inhibition at 100 µM", "setting": "FmlHLD [2]; [6]", "value": 99, "unit": "%"}]}, {"smiles": "CC(=O)N[C@H]1[C@H](Oc2ccccc2-c2cccc([N+](=O)[O-])c2)O[C@H](CO)[C@H](O)[C@@H]1O", "note": "[AM2030, N-((2S,3R,4R,5R,6R)-4,5-dihydroxy-6-(hydroxymethyl)-2-((3′-nitro-[1,1′-biphenyl]-2-yl)oxy)tetrahydro-2H-pyran-3-yl)acetamide]", "values": [{"measurement": "inhibitory potency against FmlH, in words", "setting": "FmlHLD [2]; ELISA-based competition assay", "value": "equal or slightly reduced potency"}, {"measurement": "IC50", "setting": "FmlHLD [2]; IC50 (μM), Table 5, Gal and GalNAc inhibition of FmlH", "value": 2.66, "unit": "µM"}, {"measurement": "inhibition at 1 µM", "setting": "FmlHLD [2]; [4]", "value": 9.25, "unit": "%"}, {"measurement": "inhibition at 1 µM", "setting": "FmlHLD [2]; [11]", "value": 9.25, "unit": "%"}]}, {"smiles": "CC(=O)N[C@@H]1[C@@H](O)[C@@H](O)[C@@H](CO)O[C@H]1N(CC(=O)NC(C)(C)C)C(=O)c1cccc2cccnc12", "note": "[AM1165, N-((2R,3R,4R,5R,6R)-3-acetamido-4,5-dihydroxy-6-(hydroxymethyl)tetrahydro-2H-pyran-2 yl)-N-(2-“(tert-butylamino)-2-oxoethyl)quinoline-8-carboxamide]", "values": [{"measurement": "inhibition at 1 µM", "setting": "FmlHLD [2]; [4]", "value": 5.57, "unit": "%"}, {"measurement": "inhibition at 1 µM", "setting": "FmlHLD [2]; [11]", "value": 5.57, "unit": "%"}]}]}
